Reference: patent US20070128217A1 (priority 2003, published 2007)

Key:
[1] = tested on: rabbit serum obtained by immunizing a rabbit with the SARS-CoV strain Frankfurt 1; assay type: binding; design: Binding of a rabbit serum to linear peptides / Binding of a rabbit serum to looped peptides / Rabbit serum linear peptides / Rabbit serum looped peptides / Binding of a rabbit serum to linear peptides of protein N of SARS-CoV Urbani (Rabbit serum linear peptides) / Binding of a rabbit serum to looped/cyclic peptides of protein N of SARS-CoV Urbani (Rabbit serum looped peptides): unit not given here
[2] = tested on: control sera (pooled serum of ten healthy LUMC hospital workers; commercial negative donor pooled serum from the Dutch bloodbank); assay type: binding, human; design: Binding of Control serum LUMC to linear peptides / Binding of Control serum Blood-bank to linear peptides / Binding of Control serum LUMC to looped peptides / Binding of Control Serum Blood-Bank to Looped peptides / Binding of Control serum LUMC to linear peptides of the protein M of SARS-CoV Urbani / Binding of Control serum Blood-bank to linear peptides of the protein M of SARS-CoV Urbani / Binding of Control serum LUMC to looped peptides of the protein M of SARS-CoV Urbani / Binding of Control Serum Blood-Bank to Looped peptides of the protein M of SARS-CoV Urbani: unit not given here
[3] = tested on: antibodies in sera from SARS patients (sera 1a, 1b, 2, 6, 37, 62, London, SARS-yellow, SARS-green); assay type: binding, human; design: Binding of serum 6 to linear peptides of protein X1 of SARS-CoV Urbani / Binding of serum 37 to linear peptides of protein X1 of SARS-CoV Urbani / Binding of serum 6 to looped/cyclic peptide (PEPSCAN-ELISA) / Binding of serum 37 to looped/cyclic peptide (PEPSCAN-ELISA) / Binding of serum 37 to looped/cyclic peptides of protein X1 of SARS-CoV Urbani / Binding of serum 6 to linear peptides of protein X2 / Binding of serum 37 to linear peptides of protein X2 / Binding of serum 37 to looped/cyclic peptides of protein X2 of SARS-CoV Urbani / Binding of serum 6 to linear peptides of protein M of SARS-CoV Urbani / Binding of serum 37 to linear peptides of protein M of SARS-CoV Urbani / Binding of serum 6 to looped/cyclic peptides of protein M of SARS-CoV Urbani / Binding of serum 37 to looped/cyclic peptides of protein M of SARS-CoV Urbani / Binding of serum 6 to linear peptides of protein X3 of SARS-CoV Urbani / Binding of serum 37 to linear peptides of protein X3 of SARS-CoV Urbani / Binding of serum 37 to looped/cyclic peptides of protein X3 of SARS-CoV Urbani / Binding of serum 6 to linear peptides of protein X4 of SARS-CoV Urbani / Binding of serum 37 to linear peptides of protein X4 of SARS-CoV Urbani / Binding of serum 37 to looped/cyclic peptides of protein X4 of SARS-CoV Urbani / Binding of serum 6 to linear peptides of protein X5 of SARS-CoV Urbani / Binding of serum 37 to linear peptides of protein X5 of SARS-CoV Urbani / Binding of serum 37 to looped/cyclic peptides of protein X5 of SARS-CoV Urbani / Binding of serum 6 to linear peptides of protein N of SARS-CoV Urbani / Binding of serum 37 to linear peptides of protein N of SARS-CoV Urbani / Binding of serum 6 to linear peptide (PEPSCAN-ELISA) / Binding of serum 1a to looped/cyclic peptides of protein N of SARS-CoV Urbani / Binding of serum 1b to looped/cyclic peptides of protein N of SARS-CoV Urbani / Binding of serum 2 to looped/cyclic peptides of protein N of SARS-CoV Urbani / Binding of serum 6 to looped/cyclic peptides of protein N of SARS-CoV Urbani / Binding of serum 37 to looped/cyclic peptides of protein N of SARS-CoV Urbani / Binding of serum 62 to looped/cyclic peptides of protein N of SARS-CoV Urbani / Binding of serum London to looped/cyclic peptides of protein N of SARS-CoV Urbani / Binding of serum SARS-green to looped/cyclic peptides of protein N of SARS-CoV Urbani: unit not given here
[4] = tested on: recombinant human anti-SARS-CoV antibody 03-018; assay type: binding; design: Binding of antibody 03-018 to linear peptides of the N protein of SARS-CoV Urbani / Binding of antibody 03-018 to looped/cyclic peptides of the N protein of SARS-CoV Urbani: unit not given here

Sequence | Binding of a rabbit serum to linear peptides of protein N of SARS-CoV Urbani (Rabbit serum linear peptides) [1] | Binding of a rabbit serum to looped/cyclic peptides of protein N of SARS-CoV Urbani (Rabbit serum looped peptides) [1] | Binding of Control Serum Blood-Bank to Looped peptides [2] | Binding of Control serum Blood-bank to linear peptides [2] | Binding of Control serum LUMC to linear peptides [2] | Binding of Control serum LUMC to looped peptides [2] | Binding of serum 1a to linear peptides of protein N of SARS-CoV Urbani [3] | Binding of serum 1a to looped/cyclic peptides of protein N of SARS-CoV Urbani [3] | Binding of serum 1b to linear peptides of protein N of SARS-CoV Urbani [3] | Binding of serum 1b to looped/cyclic peptides of protein N of SARS-CoV Urbani [3] | Binding of serum 2 to linear peptides of protein N of SARS-CoV Urbani [3] | Binding of serum 2 to looped/cyclic peptides of protein N of SARS-CoV Urbani [3] | Binding of serum 6 to looped/cyclic peptides of protein N of SARS-CoV Urbani [3] | Binding of serum 37 to looped/cyclic peptides of protein N of SARS-CoV Urbani [3] | Binding of serum 62 to looped/cyclic peptides of protein N of SARS-CoV Urbani [3] | Binding of serum London to looped/cyclic peptides of protein N of SARS-CoV Urbani [3] | Binding of serum SARS-green to looped/cyclic peptides of protein N of SARS-CoV Urbani [3] | Binding of serum SARS-yellow to looped/cyclic peptides of protein N of SARS-CoV Urbani [3] | Binding of antibody 03-018 to linear peptides of the N protein of SARS-CoV Urbani [4] | Binding of antibody 03-018 to looped/cyclic peptides of the N protein of SARS-CoV Urbani [4] | further results
PEASLPYGANKEGIV | 0.1 | 0.2 | 0.5 | 0.9 | 0.7 | 0.6 | 0.3 | 0.3 | 0.1 | 0.2 | 0.2 | 0.4 | 0.2 | 0.4 | 0.3 | 0.3 | 0.3 | 0.2 | 0.1 | 0.2 | Binding of serum 6 to linear peptides of protein N of SARS-CoV Urbani [3]: 0.2; Binding of serum 37 to linear peptides of protein N of SARS-CoV Urbani [3]: 0.7; Binding of serum 62 to linear peptides of protein N of SARS-CoV Urbani [3]: 0.7; Binding of serum London to linear peptides of protein N of SARS-CoV Urbani [3]: 0.5; Binding of serum SARS-green to linear peptides of protein N of SARS-CoV Urbani [3]: 0.3; Binding of serum SARS-yellow to linear peptides of protein N of SARS-CoV Urbani [3]: 0.6
PEQTQGNFGDQDLIR | 0.1 | 0.5 | 0.5 | 0.8 | 0.9 | 0.6 | – | 0.4 | – | 0.4 | – | 0.4 | 0.2 | 0.6 | 0.4 | 0.4 | 0.4 | 0.6 | 0.1 | 0.2 | Recognition of the peptide by sera of SARS-CoV infected individuals, and form (linear, looped/cyclic) in which it is recognized [3]: recognized in linear form
PKDHIGTRNPNNNAA | 0.2 | 0.2 | 0.5 | 0.8 | 0.8 | 0.6 | 0.3 | 0.4 | 0.1 | 0.3 | 0.3 | 0.3 | 0.3 | 0.5 | 0.3 | 0.3 | 0.2 | 0.2 | 0.1 | 0.2 | Binding of serum 6 to linear peptides of protein N of SARS-CoV Urbani [3]: 0.2; Binding of serum 37 to linear peptides of protein N of SARS-CoV Urbani [3]: 0.8; Binding of serum 62 to linear peptides of protein N of SARS-CoV Urbani [3]: 0.9; Binding of serum London to linear peptides of protein N of SARS-CoV Urbani [3]: 0.5; Binding of serum SARS-green to linear peptides of protein N of SARS-CoV Urbani [3]: 0.4; Binding of serum SARS-yellow to linear peptides of protein N of SARS-CoV Urbani [3]: 0.8
PNNTASWFTALTQHG | 0.1 | 0.4 | 0.7 | 0.5 | 0.7 | 0.7 | 0.2 | 0.4 | 0.1 | 0.2 | 0.2 | 0.3 | 0.2 | 0.6 | 0.5 | 0.3 | 0.7 | 0.6 | 0.1 | 0.3 | Binding of serum 6 to linear peptides of protein N of SARS-CoV Urbani [3]: 0.2; Binding of serum 37 to linear peptides of protein N of SARS-CoV Urbani [3]: 0.7; Binding of serum 62 to linear peptides of protein N of SARS-CoV Urbani [3]: 0.7; Binding of serum London to linear peptides of protein N of SARS-CoV Urbani [3]: 0.5; Binding of serum SARS-green to linear peptides of protein N of SARS-CoV Urbani [3]: 0.3; Binding of serum SARS-yellow to linear peptides of protein N of SARS-CoV Urbani [3]: 0.4
PPTEPKKDKKKKTDE | 0.2 | 0.2 | – | – | – | – | 0.2 | 0.2 | 0.1 | 0.1 | 2.0 | 0.2 | 0.1 | 0.4 | 0.2 | 0.2 | 0.0 | 0.2 | 0.1 | 0.2 | Control Serum Blood-Bank Looped peptides [2]: 0.4; Control serum Blood-bank linear peptides [2]: 0.6; Control serum LUMC linear peptides [2]: 0.7; Control serum LUMC looped peptides [2]: 0.3; Binding of serum 6 to linear peptides of protein N of SARS-CoV Urbani [3]: 0.2; Binding of serum 37 to linear peptides of protein N of SARS-CoV Urbani [3]: 0.6; Binding of serum 62 to linear peptides of protein N of SARS-CoV Urbani [3]: 0.7; Binding of serum London to linear peptides of protein N of SARS-CoV Urbani [3]: 0.5; Binding of serum SARS-green to linear peptides of protein N of SARS-CoV Urbani [3]: 0.3; Binding of serum SARS-yellow to linear peptides of protein N of SARS-CoV Urbani [3]: 0.6
